# Test results taken from patent US4370474A, “11-Deoxy-carminomycin compounds” (Farmitalia Carlo Erba S.p.A., priority 1978, dated 1983).
# Counter-ions that a name gives are not always drawn. Like-named read-outs stand apart in the source and are kept apart here.
# Experiments:
# HeLa cells = assay: Effect on HeLa cells viability in vitro; format: cell-based; conditions: Homo sapiens, read-out: Effect of HeLa cells viability in vitro ID50
# Method: (§1) The new antibiotics W, Y and Z have been tested against HeLa cells in vitro (time of exposure to the drugs: 24 hours), and on L 1210 and P 388 leukemia in mice in comparison with daunorubicin.
# (a) HeLa cells were exposed to the drugs for 24 hrs, then plated.
# P 388 leukemia = assay: Antitumor activity on P 388 leukemia in mice; format: in vivo; conditions: for P-388 Toxic deaths: evaluated on macroscopic findings
# Method: as §1
# (§2) (b) Mice were treated i.p. on day 1 after tumor cell inoculation.
# (§3) (c) Evaluated on the basis of macroscopic findings.
# L 1210 leukemia = assay: Antitumor activity on L 1210 leukemia in mice; format: in vivo; conditions: for L-1210 Toxic deaths: evaluated on macroscopic findings
# Method: as §1, §2, §3
# Solubility = format: physicochemical; conditions: aglycone from acid hydrolysis
# [1] = HeLa cells exposed to the drugs for 24 hrs, then plated
# [2] = 1.0 mg/kg i.p. on day 1 after tumor cell inoculation
# [3] = 1.2 mg/kg i.p. on day 1 after tumor cell inoculation
# [4] = 1.9 mg/kg i.p. on day 1 after tumor cell inoculation
# [5] = 2.9 mg/kg i.p. on day 1 after tumor cell inoculation
# [6] = 4.4 mg/kg i.p. on day 1 after tumor cell inoculation
# [7] = 6.6 mg/kg i.p. on day 1 after tumor cell inoculation
smiles,measurement,setting,value
C[C@@H]1O[C@@H](O[C@H]2C[C@](O)(C(=O)CO)Cc3cc4c(c(O)c32)C(=O)c2c(O)cccc2C4=O)C[C@H](N)[C@@H]1O [Antibiotic W.HCl],IC50,HeLa cells; [1],8.8 ng/mL
same,P-388 Toxic deaths,P 388 leukemia; 1.0 mg/kg i.p. on day 1,0/10
same,P-388 T/C,P 388 leukemia; [2],159%
same,P-388 Toxic deaths,P 388 leukemia; 1.5 mg/kg i.p. on day 1,0/20
same,P-388 T/C,P 388 leukemia; 1.5 mg/kg i.p. on day 1 after tumor cell inoculation,172%
same,P-388 Toxic deaths,P 388 leukemia; 2.25 mg/kg i.p. on day 1,0/20
same,P-388 T/C,P 388 leukemia; 2.25 mg/kg i.p. on day 1 after tumor cell inoculation,163%
same,P-388 Toxic deaths,P 388 leukemia; 3.4 mg/kg i.p. on day 1,0/10
same,P-388 T/C,P 388 leukemia; 3.4 mg/kg i.p. on day 1 after tumor cell inoculation,190%
same,P-388 Toxic deaths,P 388 leukemia; 5.0 mg/kg i.p. on day 1,1/9
same,P-388 T/C,P 388 leukemia; 5.0 mg/kg i.p. on day 1 after tumor cell inoculation,204%
CC(=O)[C@]1(O)Cc2cc3c(c(O)c2[C@@H](O[C@H]2C[C@H](N)[C@H](O)[C@H](C)O2)C1)C(=O)c1c(O)cccc1C3=O [Antibiotic Y.HCl],IC50,HeLa cells; [1],9.6 ng/mL
same,L-1210 T/C,L 1210 leukemia; 0.8 mg/kg i.p. on day 1 after tumor cell inoculation,111%
same,L-1210 T/C,L 1210 leukemia; [3],128%
same,L-1210 T/C,L 1210 leukemia; [4],122%
same,L-1210 Toxic deaths,L 1210 leukemia; 2.9 mg/kg i.p. on day 1,8/10
same,L-1210 T/C,L 1210 leukemia; [5],111%
same,P-388 T/C,P 388 leukemia; [3],145%
same,P-388 T/C,P 388 leukemia; [4],159%
CC[C@]1(O)Cc2cc3c(c(O)c2[C@@H](O[C@H]2C[C@H](N)[C@H](O)[C@H](C)O2)C1)C(=O)c1c(O)cccc1C3=O [Antibiotic Z.HCl],IC50,HeLa cells; [1],15 ng/mL
same,L-1210 T/C,L 1210 leukemia; [5],125%
same,L-1210 Toxic deaths,L 1210 leukemia; 4.4 mg/kg i.p. on day 1,2/10
same,L-1210 T/C,L 1210 leukemia; [6],131%
same,L-1210 Toxic deaths,L 1210 leukemia; 6.6 mg/kg i.p. on day 1,5/10
same,L-1210 T/C,L 1210 leukemia; [7],137%
same,P-388 T/C,P 388 leukemia; [2],140%
same,P-388 T/C,P 388 leukemia; 2.0 mg/kg i.p. on day 1 after tumor cell inoculation,140%
same,P-388 Toxic deaths,P 388 leukemia; 4.4 mg/kg i.p. on day 1,7/8
same,P-388 T/C,P 388 leukemia; [6],100%
"COc1cccc2c1C(=O)c1c(O)c3c(c(O)c1C2=O)C[C@@](O)(C(C)=O)C[C@@H]3O[C@H]1C[C@H](N)[C@H](O)[C@H](C)O1 [Daunorubicin.HCl, daunorubicin, reference compound]",IC50,"HeLa cells; HeLa, 24 h",7.5 ng/mL
same,L-1210 T/C,L 1210 leukemia; [5],144-150%
same,L-1210 Toxic deaths,L 1210 leukemia; 4.4 mg/kg i.p. on day 1,1/20
same,L-1210 T/C,L 1210 leukemia; [6],140-162%
same,L-1210 Toxic deaths,L 1210 leukemia; 6.6 mg/kg i.p. on day 1,3/19
same,L-1210 T/C,L 1210 leukemia; [7],144-162%
same,P-388 Toxic deaths,P 388 leukemia; 2.9 mg/kg i.p. on day 1,2/8
same,P-388 T/C,P 388 leukemia; [5],170%
same,P-388 Toxic deaths,P 388 leukemia; 4.4 mg/kg i.p. on day 1,6/8
same,P-388 T/C,P 388 leukemia; [6],175%
same,P-388 Toxic deaths,P 388 leukemia; 6.6 mg/kg i.p. on day 1,7/8
same,P-388 T/C,P 388 leukemia; [7],160%
CC(=O)[C@]1(O)Cc2cc3c(c(O)c2[C@@H](O)C1)C(=O)c1c(O)cccc1C3=O [aglycone of the antibiotic Y],solubility in water,Solubility,water insoluble
